In US10350213B2 (AI Therapeutics, Inc., priority 2015, dated 2019):

Columns and labels:
Assay in all cases: CellTiterGlo cell viability assay
Type in all cases: cell-based
[1] = test system: JeKo-1 (Human Mantle Cell Lymphoma)
Procedure: (§1) Briefly, test compounds (5 μl stock solution, 6×desired final well concentration) were dispensed to 384-well assay plates, TSC2−/− MEF cells (1000 cells per well in 25 μL of media) were added to the plates and the plates were incubated for 72 h (3 days) at 37° C. under an atmosphere of 5% CO2 in a humidified incubator for 3 days. Cell viability was determined with CellTiter-Glo® luminescence assay (Promega) per the manufacturer's instructions. Viability was expressed as a percentage of untreated control cells.
(§2) 35 cell lines were identified as sensitive to apilimod-induced cytotoxicity in this assay. The apilimod-sensitive cells included cells derived from several different cancers including non-Hodgkin's lymphoma, Hodgkin's lymphoma, colorectal cancer, and lung cancer. The most sensitive of those tested were non-Hodgkin's Lymphoma (NHL) cell lines. […] The only NHL subtype not sensitive in this assay was follicular.

[2] = test system: HT-29 (Human Colorectal)
Procedure: as §1, §2

[3] = test system: U937 (Human histiocytic lymphoma); settings: U-937
Procedure: as §1, §2

[4] = test system: Rec-1 (Human Mantle Cell Lymphoma); settings: Rec1
Procedure: as §1, §2

[5] = test system: ST486 (Human Burkitt's lymphoma)
Procedure: as §1, §2

[6] = test system: LOVO (Human Colorectal)
Procedure: as §1, §2

[7] = test system: HT (Human Diffuse Large B Cell Lymphoma -GCB); settings: Human DLBCL-GCB
Procedure: as §1, §2

[8] = test system: SW480 (Human Colorectal)
Procedure: as §1, §2

[9] = test system: RL (Human Follicular B Cell Lymphoma)
Procedure: as §1, §2

[10] = test system: HD-MyZ (Human Hodgkin's lymphoma)
Procedure: as §1, §2

[11] = test system: MOLT-4 (Human T-cell leukemia)
Procedure: as §1, §2

[12] = test system: DOHH-2 (Human Follicular B Cell Lymphoma-GCB); settings: Human Follicular Lymphoma - DLBCL-GCB
Procedure: as §1, §2

[13] = test system: GRANTA-519 (Human Mantle Cell Lymphoma)
Procedure: as §1, §2

[14] = test system: HCT-15 (Human Colorectal)
Procedure: as §1, §2

[15] = test system: L428 (Human Hodgkin's lymphoma); settings: L-428
Procedure: as §1, §2

[16] = test system: MDST8 (Human colorectal cancer)
Procedure: as §1, §2

[17] = test system: NCI-H1650 (Human bronchioalveolar)
Procedure: as §1, §2

[18] = test system: CAMA1 (Human breast cancer); settings: CAMA-1
Procedure: as §1, §2

[19] = test system: KG-1 (Human acute myelogenous leukemia)
Procedure: as §1, §2

[20] = test system: EB1 (Human Burkitt's lymphoma)
Procedure: as §1, §2

[21] = test system: HCT116 (Human colorectal cancer); settings: HCT-116
Procedure: as §1, §2

[22] = test system: COLO-320DM (Human Colorectal)
Procedure: as §1, §2

[23] = test system: H1693 (Human lung carcinoma); settings: NCI-H1693
Procedure: as §1, §2

[24] = test system: Daudi (Human Burkitt's lymphoma)
Procedure: as §1, §2

[25] = test system: H460 (Human lung carcinoma); settings: NCI-H460
Procedure: as §1, §2

[26] = test system: Pfeiffer (Human Diffuse Large B Cell Lymphoma -GCB); settings: Human DLBCL-GCB
Procedure: as §1, §2

[27] = test system: KMH-2 (Human Hodgkin's lymphoma); settings: KM-H2
Procedure: as §1, §2

[28] = test system: KARPAS-422 (Human Diffuse Large B Cell Lymphoma -GCB); settings: Human DLBCL-GCB
Procedure: as §1, §2

[29] = test system: H1734 (Human lung carcinoma); settings: NCI-H1734
Procedure: as §1, §2

[30] = test system: A172 (Human neuroblastoma); settings: A 172
Procedure: as §1, §2

[31] = test system: OCI-Ly19 (Human Diffuse Large B Cell Lymphoma -GCB); settings: Human DLBCL-GCB
Procedure: as §1, §2

[32] = test system: Raji (Human Burkitt's lymphoma)
Procedure: as §1, §2

[33] = test system: SW620 (Human Colorectal); settings: SW-620
Procedure: as §1, §2

[34] = test system: U-118 MG (Human neuroblastoma)
Procedure: as §1, §2

[35] = test system: HH (Human T-cell lymphoma)
Procedure: as §1, §2

[36] = test system: DB (Human B-cell lymphoma); settings: Human DLBCL-GCB
Procedure: as §1, §2

[37] = test system: SUDHL-10 (Human Diffuse Large B Cell Lymphoma -GCB); settings: SU-DHL10, Human DLBCL-GCB
Procedure: as §1, §2

[38] = test system: Toledo (Human Diffuse Large B Cell Lymphoma -GCB); settings: Human DLBCL-GCB
Procedure: as §1, §2

[39] = test system: CA46 (Human Burkitt's lymphoma)
Procedure: as §1, §2

[40] = test system: SUDHL-1 (Human Anaplastic Large Cell Lymphoma); settings: SU-DHL-1
Procedure: as §1, §2

[41] = Homo sapiens, 72 h, 3-day CellTiterGlo assay

SMILES: Cc1cccc(/C=N/Nc2cc(N3CCOCC3)nc(OCCc3ccccn3)n2)c1 [apilimod]
- IC50 [1, 41]: < 100 nM
- IC50 ([1]; Human Mantle Cell Lymphoma): 70 nM
- IC50 [2]: > 10000 nM
- IC50 [3]: 106 nM
- IC50 [4]: 300 nM
- IC50 [5, 41]: < 100 nM
- IC50 ([5]; Human Burkitt's lymphoma): 25 nM
- IC50 [6]: > 10000 nM
- IC50 [7]: 642 nM
- IC50 [8]: 90 nM
- IC50 [9]: > 10000 nM
- IC50 [10]: > 1000 nM
- IC50 [11]: 3300 nM
- IC50 [12]: 700 nM
- IC50 [13]: > 10000 nM
- IC50 [14]: 200 nM
- IC50 [15]: 10000 nM
- IC50 [16]: 1000 nM
- IC50 [17]: > 20000 nM
- IC50 [18]: > 10000 nM
- IC50 [19]: > 2500 nM
- IC50 [20]: 174 nM
- IC50 [21]: 125 nM
- IC50 [22]: 2060 nM
- IC50 [23]: 2000 nM
- IC50 [24]: 200 nM
- IC50 [25]: > 2000 nM
- IC50 [26]: 2620 nM
- IC50 [27]: 181 nM
- IC50 [28]: > 10000 nM
- IC50 [29]: 1500 nM
- IC50 [30]: 2000 nM
- IC50 [31]: 380 nM
- IC50 [32]: > 10000 nM
- IC50 [33]: 90 nM
- IC50 [34]: > 10000 nM
- IC50 [35]: 3300 nM
- IC50 [36]: 150 nM
- IC50 [37]: 20 nM
- IC50 [38]: 270 nM
- IC50 [39]: > 10000 nM
- IC50 [40]: 590 nM
